Here are results for three compounds from patent publication US11213031B2, “Tetrazolylpropyl derivatives and their use as fungicides” (BAYER AKTIENGESELLSCHAFT, priority 2017, dated 2022).

Data set [1] can be described thus: Log P by HPLC on reversed phase columns (EEC directive 79/831 Annex V.A8). Format: physicochemical. The method, then: Measurement of Log P values was performed according to EEC directive 79/831 Annex V.A8 by HPLC (High Performance Liquid Chromatography) on reversed phase columns with the following methods: • ^[a]Log P value is determined by measurement of LC-UV, in an acidic range, with 0.1% formic acid in water and acetonitrile as eluent (linear gradient from 10% acetonitrile to 95% acetonitrile). • ^[b]Log P value is determined by measurement of LC-UV, in a neutral range, with 0.001 molar ammonium acetate solution in water and acetonitrile as eluent (linear gradient from 10% acetonitrile to 95% acetonitrile). • ^[c]Log P value is determined by measurement of LC-UV, in an acidic range, with 0.1% phosphoric acid and acetonitrile as eluent (linear gradient from 10% acetonitrile to 95% acetonitrile).
If more than one Log P value is available within the same method, all the values are given and separated by “+”.
Calibration was done with straight-chain alkan2-ones (with 3 to 16 carbon atoms) with known Log P values (measurement of Log P values using retention times with linear interpolation between successive alkanones). Lambda-max-values were determined using UV-spectra from 200 nm to 400 nm and the peak values of the chromatographic signals.

Data set [2] concerns Septoria tritici. As to the kind of experiment: In vivo preventive test on Septoria tritici (leaf spot on wheat). Conditions: Zymoseptoria tritici, 456 h; 500 ppm of active ingredient; wheat plants sprayed 24 hours before inoculation; evaluated 19 days after inoculation; read-out: efficacy. On the procedure: (§1) Solvent: 5% by volume of Dimethyl sulfoxide • 10% by volume of Acetone
(§2) Emulsifier: 1 μl of Tween® 80 per mg of active ingredient
(§3) The active ingredients were made soluble and homogenized in a mixture of Dimethyl sulfoxide/Acetone/Tween® 80 and then diluted in water to the desired concentration.
The young plants of wheat were treated by spraying the active ingredient prepared as described above. Control plants were treated only with an aqueous solution of Acetone/Dimethyl sulfoxide/Tween® 80.
After 24 hours, the plants were contaminated by spraying the leaves with an aqueous suspension of Septoria tritici spores. The contaminated wheat plants were incubated for 72 hours at 17° C. and at 100% relative humidity and then for 15 days at 20° C. and at 90% relative humidity.
The test was evaluated 19 days after the inoculation. 0% means an efficacy which corresponds to that of the control plants while an efficacy of 100% means that no disease was observed.

For data set [3], the system named is Sphaerotheca fuliginea. Put plainly: In vivo preventive test on Sphaerotheca fuliginea (powdery mildew on cucurbits). Conditions: Podosphaera fuliginea, 192 h; 500 ppm of active ingredient; gherkin plants sprayed 24 hours before inoculation; evaluated 8 days after inoculation; read-out: efficacy. The method, then: as §1, §2, §3
The young plants of gherkin were treated by spraying the active ingredient prepared as described above. Control plants were treated only with an aqueous solution of Acetone/Dimethyl sulfoxide/Tween® 80.
After 24 hours, the plants were contaminated by spraying the leaves with an aqueous suspension of Sphaerotheca fuliginea spores. The contaminated gherkin plants were incubated for 8 days at 20° C. and at 70-80% relative humidity.
The test was evaluated 8 days after the inoculation. 0% means an efficacy which corresponds to that of the control plants while an efficacy of 100% means that no disease was observed.

For data set [4], the system named is Uromyces appendiculatus. As to the kind of experiment: In vivo preventive test on Uromyces appendiculatus (bean rust). Conditions: 264 h, 500 ppm of active ingredient, bean plants sprayed 24 hours before inoculation, evaluated 11 days after inoculation, read-out: efficacy. On the procedure: as §1, §2, §3
The young plants of bean were treated by spraying the active ingredient prepared as described above. Control plants were treated only with an aqueous solution of Acetone/Dimethyl sulfoxide/Tween® 80.
After 24 hours, the plants were contaminated by spraying the leaves with an aqueous suspension of Uromyces appendiculatus spores. The contaminated bean plants were incubated for 24 hours at 20° C. and at 100% relative humidity and then for 10 days at 20° C. and at 70-80% relative humidity.
The test was evaluated 11 days after the inoculation. 0% means an efficacy which corresponds to that of the control plants while an efficacy of 100% means that no disease was observed.

The mark [5] stands for this setting: method [a]: LC-UV, acidic range, 0.1% formic acid in water and acetonitrile as eluent.

One may read the chromatographic logP as lipophilicity estimated from chromatographic retention. A low value points to lower lipophilicity. As to `OC(Cc1cccnc1Cl)(Cn1cnnn1)C1(Cl)CC1` (stereo not shown) [Ia-03, 2-(1-chlorocyclopropyl)-1-(2-chloro-3-pyridyl)-3-(tetrazol-1-yl)propan-2-ol], the chromatographic logP is 1.72 in data set [1] (setting [5]); 1.68 in data set [1] (method [b]: LC-UV, neutral range, 0.001 molar ammonium acetate solution in water and acetonitrile as eluent). The pest or weed control at 500 ppm in data set [2], in data set [3] and in data set [4] was 90 to 100% throughout.
In the case of `OC(Cc1cccnc1Cl)(Cn1ncnn1)C1(Cl)CC1` (stereo not shown) [Ib-05, 2-(1-chlorocyclopropyl)-1-(2-chloro-3-pyridyl)-3-(tetrazol-2-yl)propan-2-ol], the chromatographic logP in data set [1] (setting [5]) was determined as 2.03. The pest or weed control at 500 ppm fell in the range of 90 to 100% in data set [2], 90 to 100% in data set [3] and 70 to 79% in data set [4].
Regarding `OC(Cc1ccccc1F)(Cn1ncnn1)C1(Cl)CC1` (stereo not shown) [Ib-02, 2-(1-chlorocyclopropyl)-1-(2-fluorophenyl)-3-(tetrazol-2-yl)propan-2-ol], the chromatographic logP in data set [1] (setting [5]) is 2.86. Moreover, the pest or weed control at 500 ppm in data set [2], in data set [3] and in data set [4] was 90 to 100% each time.
